The source of these data is US9175077B2, “Nucleic acids encoding biologically active polypeptides derived from a novel early stage pregnancy factor designated maternin (MA)” (NOBEL BIOSCIENCES LLC, priority 1999, dated 2015).

Entries after “also recorded” stand apart in the source; their conditions may differ.

Data set [1] can be described thus: Lethal dose taxol in Sprague-Dawley rats. Type of data set: in vivo. As for the experimental part: Sprague-Dawley rats were given taxol in large lethal doses, 4.5 mg in one I.P. inoculation. […] Bone marrow suppression can also be a side effect of the clinical use of taxol.^179 As in the radiation experiments, either MA, pMA, MAS1, or various polypeptide controls were given subcutaneously only in two doses 24 and 48 hrs before taxol treatment or were given 3×/week for 4 weeks. […]

Another data set relates to HIV-1 gene expression. The data set can be described thus: HIV-1 transgenic mice, pups feeding from treated mothers. The format is in vivo. The conditions noted are these: for survival / development of pups (qualitative): mothers treated, pups breast fed.
The nature of data set [2]: Lethally irradiated rats and mice. The following applies: for survival: treated at time of radiation, 3×/week for 4 weeks. As for the experimental part: In order to determine in vivo relevance of the prohematopoietic effects of MA treated rats and mice under several conditions of bone marrow suppression. First, the effects of native MA and pMA and of the synthetic 15-mer MAS1 were treated for their capacity to reduce or prevent the effects of lethal doses of gamma irradiation. […] MA, pMA, MAS1, and various control polypeptides were given 48 and 24 hrs before, during, or 24 hrs after radiation. The animals treated prior to radiation received either 100 ng vs. 1 ug (rats) or 50 ng vs. 500 ng (mice) as 2 subcutaneous injections.
It is not yet possible to determine the precise molar dose of pMA because of less certainty on its full-length sequence.
To ascertain that the MA effect did promote hematopoiesis in these animals we examined the bone marrow for cellularity and colony formation and determined peripheral blood counts.

The next data set deals with normal human cells. Description: Effects on normal cells in vitro (confocal microscopy, trypan blue, MTT, 3H-thymidine). Type of data set: cell-based. As for the experimental part:
More extensive studies of the effects of MA and with truncated synthetic forms of MA (MAS) on a wide range of other human tumor cells were carried out using three-dimensional confocal microscopy. Cells were cultured and then seeded onto gelatinized glass chamber slides and incubated 24 hrs with the various test materials. The slides were then fixed with formalin and treated serially with Triton X-100 (0.01%) for 10 min at 25°, 0.4 ug/ml fluorescein isothiocyanate (FITC)-labeled Phalloidin (Sigma Chem. Co.) at room temperature for 30 min to bind actin, washed with PBS and the DNA stained with Propidium iodide (PI) (0.5 ug·ml) (Sigma Chemical Co.), for 15 min. The stained slides were washed and mounted on slow fade (Molecular Probes, Inc., Eugene, Oreg.) and examined through a dual emission filter XF53 (Omega, Inc., Brattlesboro, Va.) by fluorescent microscopy. In some experiments only DNA staining was performed. In these instances Triton X-100 was not used. The slides were stained with PI and examined for cell morphology and chromatin degradation under 3D confocal microscopy.
Untreated cells (first line) show normal morphology. The confocal microscopy results also verified the specificity of MA in killing tumor cells.
To be certain that this specificity for tumor cells was not simply the consequences of a difference between cycling and non-cycling cells, the following cell-types were also used: proliferating human normal fibroblasts, endothelial cells (HUVEC), and PHA-stimulated lymphocytes. […] In fact, MA actually promoted growth of some of these cells.
(§1) These cells included human, primate, and rodent bone marrow, PBMCs, and human CD4+ T-cells, CD8+ T-cells, CD34+ cells, and macrophages enriched from normal PBMCs, as well as normal human endothelial cells and fibroblasts. Cytotoxicity was assessed by 3H-thymidine incorporation, trypan blue staining, cell numbers, and morphological examination by light and confocal microscopy. Hematopoiesis was not only unimpaired it was promoted. […] These studies were chiefly performed with rats and mice, but also included rhesus macaques treated with 0.2 mg/kg for several months. Like the in vitro results, hematopoiesis was not impaired but instead enhanced.

For data set [3], the system named is human bone marrow stem cells. Description: Engraftment of ex vivo expanded hematopoietic progenitor cells in irradiated rats. Set-up: species or system Sprague Dawley rats. The following applies: Rat S. Dawley irradiated 450 RAD; n = 3. The text has this:
The inventors also investigated the effect of MA on engraftment of human bone marrow stem cells [CD34^+, CD38″ cells, long term cultures after 4 mos, and stromal free cultures] ex vivo expanded hematopoietic progenitor cells in Rats irradiated [Sprague DAwley, 450 Rad] and immunodeficient mice [SCID or BNX-XID mice].
Measurement of short-term hematopoietic reconstitution kinetics and long term repopulating ability. Just prior to implantation, SCID, BNX-XID-immunodeficient mice and Sprague Dawley rats were exposed to 450 rad total body γ-irradiation. […] But the SCID and BNX-XID immunodeficient mice were repopulated by the cultured, treated human cells.

A short description of data set [4]: Toxicity in animal studies. The format is in vivo, rats, mice. The conditions noted are these: incl. rhesus macaques 0.2 mg/kg for several months. As for the experimental part:
as §1

As to “VVCNYRDVRFESIRLPGCPRGVNPVVSYAVALSCQ [MA]”, the “survival of pretreated animals” value in data set [1] (low dose, two doses 24 and 48 hrs before taxol) is “Sixty-percent”. The “survival maintained to day 80” value in data set [1] (therapy maintained 28 days, high dose (1000 ng)) was around 80%; in data set [1] (therapy maintained 28 days, low dose (100 ng)), “about 60%”. Moreover, in data set [1] (therapy maintained 28 days, low or high dose), the “survival on day 5” value is reported as 100%. The “weight over the ten day period” value in the data set on HIV-1 gene expression (30-150 pmoles) is “quadrupled their weight”. Also, in the data set on HIV-1 gene expression (low dose (30 pmoles), after 2 mos), the “animals that eventually died” value was “about 50%”. Moreover, the “survival / development of pups (qualitative)” value is reported as “survived” in the data set on HIV-1 gene expression and “normal development” in the data set with HIV-1 gene expression (listed as native MA). Moreover, the “HIV-1 viral expression in tissues” value in the data set with HIV-1 gene expression (mouse, in vivo) is “marked inhibition of viral expression”. Further, the survival in data set [2] (higher dose, over 100 days) is 100%; in data set [2] (lowest doses), 80%. In addition, in data set [2] (in vivo), the gastrointestinal distress result was “little or no gastrointestinal distress”. Moreover, the relative survival result in data set [2] (pretreated, higher dose) was “survived longest”. In addition, the “inhibition of growth or apoptosis of proliferating normal fibroblasts, HUVEC, PHA-stimulated lymphocytes” value in the data set with normal human cells was “no inhibition of growth or evidence of apoptosis”. Further, the “effect on morphology of primary human fibroblasts, cord blood CD34+ cells, CD4+ T cells, macrophages” value with normal human cells (2000 ng/ml) is “no effect”. Further, the “cytopathogenicity / toxic side effects on normal cells in vitro” value in the data set on normal human cells (concentration ranges and time periods reported) is listed as “no toxic side effects; also recorded: no cytopathogenicity”. In addition, in the data set on normal human cells (up to 10× the effective concentrations), the “cytotoxicity on normal cells at higher concentrations” value was “no evident cytotoxic effects; also recorded: no evident cytotoxicity”. Further, in data set [3], the CD4 is 1%. Moreover, the CD14 in data set [3] worked out at 1%. The sequence also gave a CD34 in data set [3] of 40%. Further, the “toxic side effects grossly or by blood counts” value in data set [4] is “no evident toxic side effects”.
